# Legend:
# Type in all cases: cell-based
# Phospho-Rb (Ser807/811) = test: Phospho-Retinoblastoma (pRB) Cellular Assay; details: Homo sapiens, OVCAR-3, NIH OVCAR3 cells, 24 hours; for IC50: concentration giving 50% response; for Emax: maximum response, reference compound at 10 μM = 100%, read-out: pRB Ymax
# Method: Phospho-Retinoblastoma (pRB) Cellular Assay
# NIH OVCAR3 (HTB-161, American Type Culture Collection, Manassas VA) cells were grown up to passage 10 in culture media made up of RPMI (11835-030 Gibco, Grand Island NY), 20% HI FBS (16140-071, Gibco, Grand Island NY), and 0.01 mg/mL insulin from bovine pancreas (I6634-1G, Sigma Aldrich, St. Louis, MO).
# The cells were seeded in a 384-well CulturPlate (6007688, Perkin Elmer, Waltham MA) at a density of 10,000 cells/well in 20 μL of the above culture media and incubated overnight at 37° C. and 5% CO2.
# The next day, cells were treated using an Echo 650 (Beckman Coulter, Indianapolis IN) acoustic dispenser with 40 nL of compounds dissolved in DMSO at the appropriate serial dilutions (10 mM to […]). Cells were then incubated for 24 hours as above.
# After 24 hours elapsed, media was removed from each well and shortly after 20 μL of the following mix was added: 12 μL deionized water, 4 μL lysis buffer, 4 μL of reconstituted antibody mix, and 1:100 phosphatase inhibitor. These components belong to the Phospho-Rb (Ser807/811) Cellular Kit (64RBS807PEY, Perkin Elmer, Waltham MA).
# Plates were sealed and incubated away from light at room temperature for at least 4 hours before reading them on an EnVision plate reader (Perkin Elmer, Waltham MA) according to the kit manufacturer's protocol. The reference compound, N-(5-{[(5-tert-butyl-1,3-oxazol-2-yl)methyl]sulfanyl}-1,3-thiazol-2-yl)piperidine-4-carboxamide, at 10 μM was used to define 100% response. Assay results for each compound were reported as IC50, the concentration giving 50% response, and Ymax, the maximum response observed with the compound.
# GSPT1 = GSPT1 (Homo sapiens, UniProt P15170+Q96SW2); test: GSPT1 Cellular Degradation Assay (DF15-GSPT1-ePL); design: expressed in transfected cells; details: DF15-GSPT1-ePL cells, 20 hours
# Excerpt: DF15-GSPT1-ePL was used for intracellular GSPT1 protein degradation detection in form of chemiluminescent signal, which was built on a human DF15 cell line (CVCL_Y429) with conditional co-expression of chimeric GSPT1 (target) and ePL/donor (enhanced ProLabel® by DiscoverX for enzyme fragment complementation with donor-acceptor pairing). The cells used the culture medium in two arrangements for assay and maintenance. During assay, it used Core-RPMI 1640 medium with 10% Fetal Bovine Serum (Heat Inactivated) and 1× Penicillin/Streptomycin; and during passage maintenance, used added ingredients: 0.1 mM NEAA, 1 mM sodium pyruvate, 25 mM Hepes, 0.1% Pluronic F-68, 1× Glutamin, 4 μg/mL Blasticidin (selection agent). Detection was performed on a 1536 well tissue culture plate (Corning #3727) with cells seeded in 3.5 μL core-RPMI 1640 at density of 0.25 million/mL after the pre-titrated test compounds in DMSO on ECHO plate were dispensed onto the assay plate by use of ECHO (liquid handing system via acoustic energy from Labcyte). Assay incubation lasted 20 hours in 37° C. incubator with 5% CO2; then followed by 30 minutes of plate-cooling at room temperature; then detection-reagent-mix was added in 3.5 μL/well with pre-defined proportion of enzyme acceptor, substrate, and lysis buffer. Plate signal reading for luminescence on an EnVision plate reader (PerkinElmer) was conducted after 60 minutes of former step at room temperature. Raw data was collected and processed with Dotmatics (data analyzer) for test compound's potency values. The reference compound, 3-[5-(3,6-dimethoxyisoquinolin-1-yl)-1-oxo-2,3-dihydro-1H-isoindol-2-yl]piperidine-2,6-dione, at […] was used to define 75% response. Assay results for each compound were reported as DC50, the concentration giving 50% response, and Dmax, the maximum response observed with the compound.
# Cyclin E1 = Cyclin E1 (Homo sapiens, UniProt P24864+Q96SW2); test: Cyclin E1 Cellular Degradation Assay (MSD); design: endogenous in cells; host or cells: OVCAR3; details: for DC50 / Dmax: Cyclin E1 cellular degradation; for Dmax: maximum degradation; for Ratio of GSPT1 DC50/Cyclin E1 DC50: selectivity for degradation of Cyclin E1 over GSPT1
# Method: Culturing cells: On Day 0, OVCAR3 cells were plated at 15,000 cells/well in 40 μL of culture medium (RPMI1640, 20% FBS, 0.01 insulin, 1% Anti/Anti) in a 384 well cell culture plate. Cell cultures were incubated for 24 hours at 37° C. and 5% CO2.
# Coating MSD plates: On Day 1, rabbit anti-CCNE1 antibody (Abcam ab33911, 1 μg/mL in DPBS, […]) was dispensed to a Meso Scale Discovery plate (MSD L21XA). The MSD plate was spun briefly to ensure the solution coated the bottom of the well and incubated overnight at 4° C. On Day 2, the plate was washed 3 times with TBS +0.2% TWEEN, blocked for 1 hour with 3% MSD Blocker A (MSD R93AA-1, 30 μL/well), then washed again 3 times with TBS+0.2% TWEEN.
# Treating and lysing cells: On Day 1, compounds of interest were dispensed into the cell cultures by acoustic dispensing technology. The cell cultures were then spun at 400 g for 4 minutes to disperse the compounds and incubated at 37° C. and 5% CO2 for 24 hours. After incubation, 40 μL of DPBS was added to the cell cultures to dilute the media. All liquid was gently discarded and immediately replaced with 30 μL of lysis buffer (MSD Tris Lysis buffer (MSD R60TX-2), Halt Protease inhibitor (ThermoFisher 78438), Phosphatase Inhibitor II (Sigma-Aldrich P5726), Phosphatase Inhibitor III (Sigma-Aldrich P0044), 0.02M PMSF (Sigma-Aldrich 7626), 0.1% SDS (VWR E719-100ML)). The plate was then sealed, shaken at 300 rpm at room temperature for 5 minutes, and freeze-thawed for optimum cell lysis.
# Collecting data: After thawing, 25 μL of lysate was transferred to a coated MSD plate. The plate was then sealed and shaken at 300 rpm overnight in 4° C. On Day 3, the MSD plate was washed 3 times with TBS+0.2% TWEEN. Mouse anti-CCNE1 antibody (Abcam ab238081, 0.5 μg/mL in 1% MSD Blocker A, 10 μL/well) dispensed to the MSD plate, which was then sealed and shaken at room temperature for 3 hours. After the first antibody incubation, the plate was washed 3 times with TBS+0.2% TWEEN, then goat anti-mouse Sulfo-Tag antibody (MSD R32AC, 1 μg/mL in 1% MSD Blocker A, 10 μL/well) was dispensed to the MSD plate. The plate was sealed again and shaken at room temperature for 1 hour, then washed 3 times with TBS+0.2% TWEEN. After the final wash, 35 μL of 1× Read Buffer (MSD R92TC-1) was added to each well and the data was captured using the MSD plate reader. The reference compound, [2-(2,6-dioxopiperidin-3-yl)-4-methoxy-3-oxo-2,3-dihydro-1H-isoindol-5-yl]methyl N-[4-(3,4-difluorophenoxy)phenyl]carbamate, at […] was used to define […]. Assay results for each compound were reported as DC50, the concentration giving 50% response, and Dmax, the maximum response observed with the compound.
# Chain of GSPT1 (P15170 whole entry, the tested form may be a part): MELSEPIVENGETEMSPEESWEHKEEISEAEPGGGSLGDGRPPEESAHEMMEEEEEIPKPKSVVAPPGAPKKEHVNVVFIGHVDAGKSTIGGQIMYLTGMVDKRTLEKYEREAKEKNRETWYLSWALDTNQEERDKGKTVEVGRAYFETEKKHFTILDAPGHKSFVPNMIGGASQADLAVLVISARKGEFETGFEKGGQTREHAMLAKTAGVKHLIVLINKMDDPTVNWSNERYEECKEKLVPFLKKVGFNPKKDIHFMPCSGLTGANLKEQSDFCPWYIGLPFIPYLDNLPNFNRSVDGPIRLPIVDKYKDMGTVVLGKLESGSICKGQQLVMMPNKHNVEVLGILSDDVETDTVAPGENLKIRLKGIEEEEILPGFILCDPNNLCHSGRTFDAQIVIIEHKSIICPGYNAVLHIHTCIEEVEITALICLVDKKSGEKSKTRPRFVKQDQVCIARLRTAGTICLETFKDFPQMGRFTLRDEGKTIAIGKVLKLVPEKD
# Chain of GSPT1 (Q96SW2 whole entry, the tested form may be a part): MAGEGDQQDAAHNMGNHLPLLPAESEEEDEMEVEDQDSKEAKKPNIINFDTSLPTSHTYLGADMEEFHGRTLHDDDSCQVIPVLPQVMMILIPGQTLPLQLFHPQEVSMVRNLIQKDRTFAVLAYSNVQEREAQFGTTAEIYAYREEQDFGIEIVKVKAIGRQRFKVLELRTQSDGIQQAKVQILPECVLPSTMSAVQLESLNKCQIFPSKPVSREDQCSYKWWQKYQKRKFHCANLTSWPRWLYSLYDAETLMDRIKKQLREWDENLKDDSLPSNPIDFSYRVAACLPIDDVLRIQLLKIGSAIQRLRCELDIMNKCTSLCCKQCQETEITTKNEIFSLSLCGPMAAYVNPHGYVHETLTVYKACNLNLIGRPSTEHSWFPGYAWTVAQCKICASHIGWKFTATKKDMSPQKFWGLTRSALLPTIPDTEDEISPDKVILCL
# Chain of GSPT1 (Q16531 whole entry partner, the tested form may be a part): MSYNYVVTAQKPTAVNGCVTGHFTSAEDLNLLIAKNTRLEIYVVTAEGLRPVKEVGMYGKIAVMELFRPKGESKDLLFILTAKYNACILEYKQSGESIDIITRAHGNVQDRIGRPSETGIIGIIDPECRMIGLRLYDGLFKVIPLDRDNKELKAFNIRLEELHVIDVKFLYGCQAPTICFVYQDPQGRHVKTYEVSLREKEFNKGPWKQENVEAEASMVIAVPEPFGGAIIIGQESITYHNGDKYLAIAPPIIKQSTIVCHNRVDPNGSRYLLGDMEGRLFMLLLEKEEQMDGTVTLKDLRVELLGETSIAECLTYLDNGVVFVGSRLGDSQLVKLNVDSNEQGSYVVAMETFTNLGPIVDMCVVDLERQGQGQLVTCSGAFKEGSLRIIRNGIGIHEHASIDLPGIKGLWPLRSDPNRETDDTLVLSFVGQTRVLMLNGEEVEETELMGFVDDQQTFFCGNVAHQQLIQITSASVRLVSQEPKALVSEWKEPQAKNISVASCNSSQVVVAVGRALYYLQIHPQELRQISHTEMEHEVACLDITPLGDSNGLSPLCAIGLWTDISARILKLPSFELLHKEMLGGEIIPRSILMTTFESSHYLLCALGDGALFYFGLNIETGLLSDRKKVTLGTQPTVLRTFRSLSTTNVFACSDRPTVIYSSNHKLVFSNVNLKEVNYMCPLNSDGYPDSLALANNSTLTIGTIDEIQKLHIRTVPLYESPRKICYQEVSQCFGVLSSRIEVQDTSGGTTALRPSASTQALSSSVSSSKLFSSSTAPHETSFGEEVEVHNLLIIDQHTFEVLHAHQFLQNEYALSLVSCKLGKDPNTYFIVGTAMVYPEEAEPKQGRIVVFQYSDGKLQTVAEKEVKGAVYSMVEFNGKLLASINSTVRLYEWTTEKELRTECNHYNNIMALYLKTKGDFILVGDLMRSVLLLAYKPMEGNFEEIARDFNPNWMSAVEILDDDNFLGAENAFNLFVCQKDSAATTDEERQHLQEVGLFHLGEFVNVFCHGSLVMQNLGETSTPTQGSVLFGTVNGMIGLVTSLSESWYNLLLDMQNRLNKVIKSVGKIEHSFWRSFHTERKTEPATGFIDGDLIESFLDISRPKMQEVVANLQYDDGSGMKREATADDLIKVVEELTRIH
# Chain of Cyclin E1 (P24864 whole entry): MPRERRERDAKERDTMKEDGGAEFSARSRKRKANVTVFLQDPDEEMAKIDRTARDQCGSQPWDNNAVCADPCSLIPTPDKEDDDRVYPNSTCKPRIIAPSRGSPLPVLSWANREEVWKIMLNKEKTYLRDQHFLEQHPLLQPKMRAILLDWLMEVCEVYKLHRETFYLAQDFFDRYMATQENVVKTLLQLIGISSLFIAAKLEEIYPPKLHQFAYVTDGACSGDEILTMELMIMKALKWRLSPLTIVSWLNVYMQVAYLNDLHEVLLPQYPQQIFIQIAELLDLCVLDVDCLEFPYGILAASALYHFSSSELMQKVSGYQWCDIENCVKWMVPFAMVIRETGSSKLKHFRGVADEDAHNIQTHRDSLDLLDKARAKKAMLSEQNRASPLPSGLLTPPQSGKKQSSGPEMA
# Chain of Cyclin E1 (Q96SW2 whole entry): as the sequence (Q96SW2 whole entry, the tested form may be a part) above
# Chain of Cyclin E1 (Q16531 whole entry partner): as the sequence (Q16531 whole entry partner, the tested form may be a part) above
IC50 (Phospho-Rb (Ser807/811)),DC50 (GSPT1),Dmax (GSPT1),DC50 (Cyclin E1),Dmax (Cyclin E1),Ratio of GSPT1 DC50/Cyclin E1 DC50 (Cyclin E1),Compound,Emax (Phospho-Rb (Ser807/811))
25 nM,> 14000 nM,2%,75 nM,118%,>187,"CC(C)(O)COc1c(COC(=O)Nc2ccc(Oc3cc(F)cc(F)c3)cc2F)ccc2c1C(=O)N(C1CCC(=O)NC1=O)C2 (stereo not shown) [Example 164, [2-(2,6-dioxopiperidin-3-yl)-4-(2-hydroxy-2-methylpropoxy)-3-oxo-2,3-dihydro-1H-isoindol-5-yl]methyl N-[4-(3,5-difluorophenoxy)-2-fluorophenyl]carbamate]",142%
136 nM,> 14000 nM,41%,113 nM,104%,>124,"O=C1CCC(N2Cc3ccc(COC(=O)Nc4ccc(Oc5ccc(F)c(F)c5)cc4)c(Oc4ccccc4)c3C2=O)C(=O)N1 (stereo not shown) [Example 63, [2-(2,6-dioxopiperidin-3-yl)-3-oxo-4-phenoxy-2,3-dihydro-1H-isoindol-5-yl]methyl N-[4-(3,4-difluorophenoxy)phenyl]carbamate]",121%
52 nM,> 14000 nM,0%,15 nM,109%,>930,"O=C1CCC(N2Cc3ccc(COC(=O)Nc4ccc(Oc5ccc(F)c(F)c5)cc4)c(OC4CCCOCC4)c3C2=O)C(=O)N1 (stereo not shown) [Example 170, [2-(2,6-dioxopiperidin-3-yl)-4-(oxepan-4-yloxy)-3-oxo-2,3-dihydro-1H-isoindol-5-yl]methyl N-[4-(3,4-difluorophenoxy)phenyl]carbamate]",142%
86 nM,> 14000 nM,37%,176 nM,109%,>80,"CCOc1c(COC(=O)Nc2ccc(Oc3ccc(F)c(F)c3)cc2)ccc2c1C(=O)N(C1CCC(=O)NC1=O)C2 (stereo not shown) [Example 53, [2-(2,6-dioxopiperidin-3-yl)-4-ethoxy-3-oxo-2,3-dihydro-1H-isoindol-5-yl]methyl N-[4-(3,4-difluorophenoxy)phenyl]carbamate]",99%
117 nM,> 14000 nM,35%,181 nM,105%,>77,"COc1c(COC(=O)Nc2ccc(Oc3ccccc3C(F)F)cc2)ccc2c1C(=O)N(C1CCC(=O)NC1=O)C2 (stereo not shown) [Example 85, [2-(2,6-dioxopiperidin-3-yl)-4-methoxy-3-oxo-2,3-dihydro-1H-isoindol-5-yl]methyl N-{4-[2-(difluoromethyl)phenoxy]phenyl}carbamate]",98%
99 nM,> 14000 nM,37%,190 nM,113%,>74,"COc1c(COC(=O)Nc2ccc(Oc3cccc4ccccc34)cc2)ccc2c1C(=O)N(C1CCC(=O)NC1=O)C2 (stereo not shown) [Example 113, [2-(2,6-dioxopiperidin-3-yl)-4-methoxy-3-oxo-2,3-dihydro-1H-isoindol-5-yl]methyl N-[4-(naphthalen-1-yloxy)phenyl]carbamate]",93%
188 nM,–,–,176 nM,100%,–,"O=C1CCC(N2Cc3ccc(COC(=O)Nc4ccc(Oc5ccc(F)cc5Cl)cc4)c(O[C@@H]4CCOC4)c3C2=O)C(=O)N1 (stereo partly drawn) [Example 155, [2-(2,6-dioxopiperidin-3-yl)-3-oxo-4-[(3R)-oxolan-3-yloxy]-2,3-dihydro-1H-isoindol-5-yl]methyl N-[4-(2-chloro-4-fluorophenoxy)phenyl]carbamate]",116%
39 nM,–,–,101 nM,103%,–,"O=C1CCC(N2Cc3ccc(COC(=O)Nc4ccc(Oc5cccc(F)c5F)cc4)c(O[C@@H]4CCOC4)c3C2=O)C(=O)N1 (stereo partly drawn) [Example 156, [2-(2,6-dioxopiperidin-3-yl)-3-oxo-4-[(3R)-oxolan-3-yloxy]-2,3-dihydro-1H-isoindol-5-yl]methyl N-[4-(2,3-difluorophenoxy)phenyl]carbamate]",116%
65 nM,–,–,116 nM,99%,–,"O=C1CCC(N2Cc3ccc(COC(=O)Nc4ccc(Oc5ccc(F)cc5F)cc4)c(O[C@@H]4CCOC4)c3C2=O)C(=O)N1 (stereo partly drawn) [Example 157, [2-(2,6-dioxopiperidin-3-yl)-3-oxo-4-[(3R)-oxolan-3-yloxy]-2,3-dihydro-1H-isoindol-5-yl]methyl N-[4-(2,4-difluorophenoxy)phenyl]carbamate]",119%
175 nM,–,–,74 nM,104%,–,"O=C1CCC(N2Cc3ccc(COC(=O)Nc4ccc(Oc5cccc(Cl)c5)cc4)c(O[C@@H]4CCOC4)c3C2=O)C(=O)N1 (stereo partly drawn) [Example 158, [2-(2,6-dioxopiperidin-3-yl)-3-oxo-4-[(3R)-oxolan-3-yloxy]-2,3-dihydro-1H-isoindol-5-yl]methyl N-[4-(3-chlorophenoxy)phenyl]carbamate]",109%
